What all share (assay type): cell-based
In assay [1] the test system is p-Src and c-PARP in SW480claudin-1 overexpressing cells. The experiment in a line: Expression of p-Src, Src and c-PARP. An excerpt:
(§1) To this end, a library of molecules was synthesized in order to develop an initial SAR evaluation. The first compounds tested eliminated the acylated (thio) urea as well as the napthyl group and evaluated just the urea/phenyl compounds (Compounds 1-6). The methoxy group of the naphthalene ring system was needed when the benzimidazole group was present (16 vs. Compound 8). […] The result of metabolic stability was expressed as the percentage of drug remaining at each time. […] To further determine the effect of PDS-0330 on p-Src expression and association, cells were treated with Compound 1, 16 and PDS-0330. Expression and association with p-Src was unaffected with Compound 1 (negative control). The specificity of PDS-0330 for CLDN1 was further confirmed by treating SW480^CLDN1, HCT116^CLDN2 (overexpressing another tight junction protein) or normal IEC-6 cells with PDS-0330 (FIG. 12).
Furthermore, DLD-1 chemoresistant cells were treated with PDS-0330 and I-6. […] Based on the in vitro activity and metabolic stability, PDS-0330, and any potential new analogs will be evaluated in animal models to determine the pharmacokinetic properties and biodistribution as described in preliminary data.

Assay [2] has as its target T1, claudin-1/Src complex in SW480claudin-1 cells (Homo sapiens, UniProt O95832).
T1 construct: claudin-1 was expressed in a non-metastatic CRC cell line, SW480 cells; expressed in transfected cells; host or cells: SW480 colorectal cancer cells expressing claudin-1 (SW480claudin-1)
T1 sequence (O95832 1-211): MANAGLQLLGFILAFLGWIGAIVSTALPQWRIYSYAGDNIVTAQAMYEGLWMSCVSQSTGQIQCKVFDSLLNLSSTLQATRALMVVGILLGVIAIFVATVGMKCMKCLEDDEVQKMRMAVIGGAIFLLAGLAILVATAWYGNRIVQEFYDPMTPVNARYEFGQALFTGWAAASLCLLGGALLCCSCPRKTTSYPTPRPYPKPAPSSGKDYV
The experiment in a line: Claudin-1/Src association (proximity ligation assay, Co-IP). The conditions noted are these: PLA, Co-IP or immuno-precipitation. The source says: The CSC cells contribute to the generation of metastasis (16-19), and key CSC characteristics are highly relevant to metastasis, including invasive motility, and, resistance to apoptosis (20,21). […] Considering that chemoresistance is central to the CRC progression and metastasis, we further tested if adjuvant use of 16 with 5FU can have significant bearing upon these traits. Colon cancer cells were subjected to exogenous administration of 16 alone, or in combination with the 5-FU, the conventional anti-CRC drug. […] To further determine the mechanistic details the effect of 16 on association of claudin-1 and Src, SW480claudin-1 cells were treated with 16 or the vehicle and resultant cell lysate was subjected to Proximity ligation assay (PLA) or Co—IP.

The next assay concerns SW480claudin-1 cells. The experiment in a line: Resistance to anoikis in claudin-1 overexpressing cells. The settings on record: 72 h treatment.
Excerpt: The crystal structure of claudin-1 is unknown. Therefore, an in-silico protein folding program, YASARA, was used to identify an effective claudin-1 inhibitor. The resultant 3D-structure was then modeled using Molegro Virtual Docker (MVD) software program. These in-silico analyses identified putative cavities in the claudin-1 protein that can be targeted by small molecule inhibitors. Next, a 100K library of small molecules was screened in silico using the MVD. The top 10 inhibitors that bound to the Site #3 (targeting near c-terminal domain; the most accessible pocket; FIG. 2A) with the best binding energies were selected as hits and used for further testing. Screening of these inhibitors named Inihibitor-1 (1-1) to Inhibitor-10 (I-10) was done using SW480claudin-1, SW620 and control cells. Claudin-1 deficient HCT116 cells (WT-APC) or SW620shRNAcld-1 were used as negative controls. Resistance to anoikis and cell invasion was used as biological end-points in testing these inhibitors. […] 16 has the following structure:
as §1

Consider `COc1ccccc1NC(=O)Nc1ccc(-c2nc3ccccc3[nH]2)cc1` [Compound 1], for which the p-Src expression result in assay [1] is on record as “unaffected”. Further, the “claudin-1/Src (p-Src) association” value in assay [2] is listed as “unaffected”. For the same molecule, the “effect on resistance to anoikis” value in the assay on SW480claudin-1 cells is reported as “not much change”.

(Values after patent publication US20250009716A1, “NOVEL INHIBITORS OF CLAUDIN-1 FOR THERAPEUTIC INTERVENTIONS” (BOARD OF REGENTS OF THE UNIVERSITY OF NEBRASKA, priority 2021, published 2025).)
